Measurements reported in US20210330611A1, “THERAPY FOR NEUROLOGICAL DISEASES/DISORDERS” (priority 2020, published 2021).

How the values were obtained:
[1] = system: LPS-induced microglia activation; experiment: Image-based assay of LPS-induced microglia activation (HTS and dose response); assay type: cell-based, rat
[2] = system: fibrin-induced microglia activation; experiment: Image-based assay of fibrin-induced microglia activation (HTS and dose response); assay type: cell-based, rat
[3] = system: primary rat microglia; experiment: Cell toxicity (dead cells, size <150 μm2) in coated fibrin (cFib) assay;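 also: share of dead cells sized under 150 µm2 at 10 µM in fibrin-stimulated microglia HTS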
[4] = system: primary rat microglia; experiment: Cell toxicity (dead cells, size <150 μm2) in LPS assay
[5] = system: fibrin- and LPS-induced microglia activation; experiment: cells; assay type: cell-based, rat
[6] = primary microglia HTS, LPS stimulation, increased cell size (>800 μm^2) as marker of activation
[7] = primary microglia HTS, fibrin stimulation, increased cell size (>800 μm^2) as marker of activation
[8] = primary microglia HTS, fibrin stimulation, decreased size (<150 μm^2) as marker of toxicity
[9] = primary microglia HTS, LPS stimulation, decreased size (<150 μm^2) as marker of toxicity
[10] = quadrant by fibrin and LPS inhibition in HTS of 1907 compounds

Row | Structure (SMILES) | LPS % inhibition [1, 6] [%] | Fibrin % inhibition [2, 7] [%] | Fibrin % cell toxicity [3, 8] [%] | LPS % cell toxicity [4, 9] [%] | Quadrant (FIG. 5b) [5, 10] | other results
1 | C[N+](C)(C)CC(O)CC(=O)O.[Cl-] (centres unmarked) | – | – | – | – | – | LPS % inhibition ([1]; primary HTS, 10 μM, LPS-stimulated primary microglia): 1%; Fibrin % inhibition ([2]; primary HTS, 10 μM, fibrin-stimulated primary microglia): −23%; Fibrin % cell toxicity ([3]; primary HTS, 10 μM, fibrin assay, dead cells size <150 μm2): 1%; LPS % cell toxicity ([4]; primary HTS, 10 μM, LPS assay, dead cells size <150 μm2): 0%; Quadrant (FIG. 5b) ([5]; primary HTS, 10 μM): Q4
2 | N=C(NCCCCCCNC(=N)NC(=N)Nc1ccc(Cl)cc1)NC(=N)Nc1ccc(Cl)cc1 | 69 | 15 | 1 | 8 | Q1 | –
3 | CSc1ccc2c(c1)C(N1CCN(C)CC1)Cc1ccccc1S2 (centres unmarked) | −5 | 11 | 1 | 0 | Q4 | –
4 | CCN(CC)CCNC(=O)c1ccc(NC(C)=O)cc1.Cl | 9 | −11 | 0 | 1 | Q4 | –
5 | C[n+]1cc2c3c(ccc2c2ccc4cc5c(cc4c21)OCO5)OCO3 | 101 | 24 | 0 | 55 | Q1 | –
6 | Cc1scc2c1N(C(=O)CN1CCN(C)CC1)c1ccccc1NC2=O | – | – | – | – | – | LPS % inhibition ([1]; primary microglia HTS, 10 μM, LPS-stimulated, cell size >800 μm^2 as marker of activation): 14%; Fibrin % inhibition ([2]; primary microglia HTS, 10 μM, fibrin-stimulated, cell size >800 μm^2 as marker of activation): 3%; Fibrin % cell toxicity ([3]; primary microglia HTS, 10 μM, fibrin assay, cell size <150 μm^2 as marker of toxicity): 1%; LPS % cell toxicity ([4]; primary microglia HTS, 10 μM, LPS assay, cell size <150 μm^2 as marker of toxicity): 0%; Quadrant (FIG. 5b) ([5]; HTS of 1907 compounds, quadrant by fibrin and LPS inhibition): Q4
7 | OC[C@H]1O[C@@H](O[C@@H]2[C@@H](CO)OC(O)(CO)[C@H]2O)[C@H](O)[C@@H](O)[C@H]1O (mixture of isomers) [Lactulose] | – | – | – | – | Q4 | inhibition at 10 µM ([1]; Rattus norvegicus, Microglia, 48 h, primary microglia HTS, LPS stimulation, activation = cell size >800 μm2, read-out: LPS % inhibition): 4%; inhibition at 10 µM ([2]; Rattus norvegicus, Microglia, primary microglia HTS, fibrin stimulation, activation = cell size >800 μm2, read-out: Fibrin % inhibition): -14%; Fibrin % cell toxicity ([3]; primary microglia HTS, fibrin stimulation, toxicity = cell size <150 μm2): 0%; LPS % cell toxicity ([4]; primary microglia HTS, LPS stimulation, toxicity = cell size <150 μm2): 0%
